# Reference: patent US20090215804A1, “FUMARATE OF 4- [[4- [[4- (2-CYANOETHENYL) -2,6-DIMETHYLPHENYL)AMINO] -2-PYRIMIDINYL]AMINO]BENZONITRILE” (priority 2004, published 2009)
# Read-outs that look alike come from different tables or passages of the source.
# Columns and labels:
# HIV = conditions: wild type of HIV as well as drug and multi drug resistant strains of HIV; cited from earlier work
# [1] = Chemical stability: storage at different humidity and temperature, HPLC for percentage of impurities; type: physicochemical
# Protocol: Compound (I-a) was stored under different conditions of humidity and temperature. After storage, the salt was analyzed by High Performance Liquid Chromatography (HPLC) for percentage of impurities.
# Hygroscopicity = type: physicochemical
# BCS classification = type: physicochemical
# Excerpt: A scientific framework for classifying drug substances based on their aqueous solubility and intestinal permeability is the Biopharmaceutics Classification System or BCS. […] Free base and fumarate salt may be classified as BCS class 2 compounds.
# Solubility data = type: physicochemical
# Excerpt: Table 1 lists solubility data of free base (E) 4-[[4-[[4-(2-cyanoethenyl)-2,6-dimethylphenyl]amino]-2-pyrimidinyl]amino]benzonitrile and of the compound of formula (I-a).
# [2] = Physical stability of the crystal structure after storage, infrared spectroscopy; type: physicochemical; conditions: six weeks storage, conditions of Table 2, infrared spectroscopy
# Protocol: The stability of the crystal structure of the compound of formula (I-a) was studied after storage for a period of six weeks under different conditions of humidity and temperature. The same conditions as described in Table 2 were applied. After storage the compound was analyzed with infrared spectroscopy.
compound,measurement,setting,value
"Cc1cc(C=CC#N)cc(C)c1Nc1ccnc(Nc2ccc(C#N)cc2)n1 [4-[[4-[[4-(2-cyanoethenyl)-2,6-dimethylphenyl]amino]-2-pyrimidinyl]amino]-benzonitrile]",HIV replication inhibiting activity,HIV,excellent
Cc1cc(/C=C/C#N)cc(C)c1Nc1ccnc(Nc2ccc(C#N)cc2)n1 [Compound of formula (I-a)],Sum of impurities %,"[1]; 40° C./75% RH, 4 weeks","0.62 %, w/w"
same,Sum of impurities %,"[1]; 40° C./75% RH, 8 weeks","0.61 %, w/w"
same,Sum of impurities %,"[1]; 50° C./air, 4 weeks","0.62 %, w/w"
same,Sum of impurities %,"[1]; 50° C./air, 8 weeks","0.61 %, w/w"
same,Sum of impurities %,"[1]; RT/56% RH, 4 weeks","0.58 %, w/w"
same,Sum of impurities %,"[1]; RT/56% RH, 8 weeks","0.64 %, w/w"
same,Sum of impurities %,"[1]; RT/75% RH, 4 weeks","0.59 %, w/w"
same,Sum of impurities %,"[1]; RT/75% RH, 8 weeks","0.65 %, w/w"
same,Sum of impurities %,"[1]; RT/<5% RH, 4 weeks","0.61 %, w/w"
same,Sum of impurities %,"[1]; RT/<5% RH, 8 weeks","0.62 %, w/w"
same,Sum of impurities %,"[1]; Reference, 1 week","0.58 %, w/w"
same,chemical stability (in words),[1]; storage conditions of Table 2,chemically stable
same,hygroscopicity,Hygroscopicity,not hygroscopic
same,BCS class,BCS classification,BCS class 2
same,"Concentration in mg/ml, 0.01 N HCl",Solubility data; solubility in 0.01 N HCl,0.013 mg/mL
same,solubility,"Solubility data; water, solubility in water, read-out: Concentration in mg/ml, Water",0.0009 mg/mL
same,solubility in water and in HCl (in words),Solubility data; water,poor solubility
same,stability of the crystal structure,[2],No changes in crystal structure were observed
"Cc1cc(/C=C/C#N)cc(C)c1Nc1ccnc(Nc2ccc(C#N)cc2)n1 [Free base (E-isomer), (E) 4-[[4-[[4-(2-cyanoethenyl)-2,6-dimethylphenyl]amino]-2-pyrimidinyl]amino]benzonitrile]",BCS class,BCS classification,BCS class 2
same,solubility,"Solubility data; 0.01 N HCl, simulated gastric fluid, solubility in 0.01 N HCl, read-out: Concentration in mg/ml, 0.01 N HCl",0.019 mg/mL
same,"Concentration in mg/ml, PEG 400",Solubility data; solubility in PEG 400,40 mg/mL
same,"Concentration in mg/ml, Water",Solubility data; solubility in water,0.00002 mg/mL
same,solubility in water and in HCl (in words),Solubility data; water,poor solubility
